Earlier results in patent US7504230B2, “Method of identifying a useful set of signal transduction proteins from a multiplicity of potentially useful proteins” (Trelolis Bioscience, Inc., priority 1999, dated 2009).

Assays:
PKC isoenzyme α = molecular target: T1, PKC isoenzyme α (Homo sapiens, UniProt P17252); conditions: hDMEC, after stimulation with PMA; from cytosol
T1 construct: endogenous in cells; host or cells: hDMEC (human dermal microvascular endothelial cells)

PKC isoenzyme β = molecular target: T2, PKC isoenzyme β (Homo sapiens, UniProt P05771); conditions: hDMEC, after stimulation with PMA; from cytosol (ditto mark)
T2 construct: endogenous in cells; host or cells: hDMEC (human dermal microvascular endothelial cells)
T2 sequence (P05771 whole entry): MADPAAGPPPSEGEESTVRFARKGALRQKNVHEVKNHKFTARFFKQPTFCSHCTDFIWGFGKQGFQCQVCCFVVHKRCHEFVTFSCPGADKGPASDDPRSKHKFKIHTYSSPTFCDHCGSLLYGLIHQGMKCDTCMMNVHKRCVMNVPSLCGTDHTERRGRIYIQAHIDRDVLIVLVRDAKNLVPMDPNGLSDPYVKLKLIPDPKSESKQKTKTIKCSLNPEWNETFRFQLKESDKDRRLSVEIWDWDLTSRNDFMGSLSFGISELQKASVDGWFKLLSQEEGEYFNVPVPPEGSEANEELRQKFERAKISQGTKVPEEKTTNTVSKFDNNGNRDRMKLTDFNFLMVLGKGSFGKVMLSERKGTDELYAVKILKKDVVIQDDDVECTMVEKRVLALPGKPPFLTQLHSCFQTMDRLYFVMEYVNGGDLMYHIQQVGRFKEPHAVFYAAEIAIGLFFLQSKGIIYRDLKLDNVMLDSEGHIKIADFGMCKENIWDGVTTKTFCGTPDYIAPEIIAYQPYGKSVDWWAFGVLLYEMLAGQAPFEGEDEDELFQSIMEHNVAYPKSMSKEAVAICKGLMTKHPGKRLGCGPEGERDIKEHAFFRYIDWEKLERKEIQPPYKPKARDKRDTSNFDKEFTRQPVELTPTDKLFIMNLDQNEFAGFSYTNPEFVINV

PKC isoenzyme βII = molecular target: T3, PKC isoenzyme βII (Homo sapiens, UniProt P05771); conditions: hDMEC, after stimulation with PMA; from nucleus
T3 construct: endogenous in cells; host or cells: hDMEC (human dermal microvascular endothelial cells)
T3 sequence (P05771 1-673 isoform P05771-2): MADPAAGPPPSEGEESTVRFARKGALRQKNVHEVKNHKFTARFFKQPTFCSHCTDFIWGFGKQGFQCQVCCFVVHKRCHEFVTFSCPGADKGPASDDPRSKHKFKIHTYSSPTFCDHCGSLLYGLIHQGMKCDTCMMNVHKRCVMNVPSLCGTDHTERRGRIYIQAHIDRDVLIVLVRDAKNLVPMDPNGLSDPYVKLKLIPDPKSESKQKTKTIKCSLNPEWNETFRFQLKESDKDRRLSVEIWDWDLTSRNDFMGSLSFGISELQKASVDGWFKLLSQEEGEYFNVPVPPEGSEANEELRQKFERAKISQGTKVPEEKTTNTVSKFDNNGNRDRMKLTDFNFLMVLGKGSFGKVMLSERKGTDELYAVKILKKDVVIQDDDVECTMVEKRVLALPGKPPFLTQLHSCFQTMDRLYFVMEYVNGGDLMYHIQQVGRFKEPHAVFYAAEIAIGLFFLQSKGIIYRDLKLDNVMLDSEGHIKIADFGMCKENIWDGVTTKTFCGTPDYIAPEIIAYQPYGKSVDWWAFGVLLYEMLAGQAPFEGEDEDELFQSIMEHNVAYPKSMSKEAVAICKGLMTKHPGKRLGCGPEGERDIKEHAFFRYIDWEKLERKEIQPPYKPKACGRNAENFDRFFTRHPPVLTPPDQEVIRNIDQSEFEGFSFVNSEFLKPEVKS

PKC isoenzyme δ = molecular target: T4, PKC isoenzyme δ (Homo sapiens, UniProt Q05655); conditions: hDMEC, after stimulation with PMA; from cytosol
T4 construct: endogenous in cells; host or cells: hDMEC (human dermal microvascular endothelial cells)
T4 sequence (Q05655 whole entry): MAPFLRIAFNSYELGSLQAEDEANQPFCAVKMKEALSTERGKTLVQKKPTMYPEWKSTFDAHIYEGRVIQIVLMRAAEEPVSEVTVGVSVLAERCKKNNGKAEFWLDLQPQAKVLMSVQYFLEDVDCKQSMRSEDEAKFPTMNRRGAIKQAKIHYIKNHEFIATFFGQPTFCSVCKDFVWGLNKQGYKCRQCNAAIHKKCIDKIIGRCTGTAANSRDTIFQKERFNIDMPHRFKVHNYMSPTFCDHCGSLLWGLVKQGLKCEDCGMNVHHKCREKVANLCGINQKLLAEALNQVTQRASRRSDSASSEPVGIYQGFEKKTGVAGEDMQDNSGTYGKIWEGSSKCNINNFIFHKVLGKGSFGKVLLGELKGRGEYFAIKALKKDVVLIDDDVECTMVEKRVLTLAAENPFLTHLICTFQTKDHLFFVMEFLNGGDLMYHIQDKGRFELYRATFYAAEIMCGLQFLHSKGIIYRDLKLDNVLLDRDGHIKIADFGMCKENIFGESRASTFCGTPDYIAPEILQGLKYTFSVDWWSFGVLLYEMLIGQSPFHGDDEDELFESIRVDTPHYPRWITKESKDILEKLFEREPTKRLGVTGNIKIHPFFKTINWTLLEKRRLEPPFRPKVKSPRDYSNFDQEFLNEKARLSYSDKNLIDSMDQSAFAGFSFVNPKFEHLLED

PKC isoenzyme ε = molecular target: T5, PKC isoenzyme ε (Homo sapiens, UniProt Q02156); conditions: hDMEC, after stimulation with PMA; from periphery
T5 construct: endogenous in cells; host or cells: hDMEC (human dermal microvascular endothelial cells)
T5 sequence (Q02156 1-737): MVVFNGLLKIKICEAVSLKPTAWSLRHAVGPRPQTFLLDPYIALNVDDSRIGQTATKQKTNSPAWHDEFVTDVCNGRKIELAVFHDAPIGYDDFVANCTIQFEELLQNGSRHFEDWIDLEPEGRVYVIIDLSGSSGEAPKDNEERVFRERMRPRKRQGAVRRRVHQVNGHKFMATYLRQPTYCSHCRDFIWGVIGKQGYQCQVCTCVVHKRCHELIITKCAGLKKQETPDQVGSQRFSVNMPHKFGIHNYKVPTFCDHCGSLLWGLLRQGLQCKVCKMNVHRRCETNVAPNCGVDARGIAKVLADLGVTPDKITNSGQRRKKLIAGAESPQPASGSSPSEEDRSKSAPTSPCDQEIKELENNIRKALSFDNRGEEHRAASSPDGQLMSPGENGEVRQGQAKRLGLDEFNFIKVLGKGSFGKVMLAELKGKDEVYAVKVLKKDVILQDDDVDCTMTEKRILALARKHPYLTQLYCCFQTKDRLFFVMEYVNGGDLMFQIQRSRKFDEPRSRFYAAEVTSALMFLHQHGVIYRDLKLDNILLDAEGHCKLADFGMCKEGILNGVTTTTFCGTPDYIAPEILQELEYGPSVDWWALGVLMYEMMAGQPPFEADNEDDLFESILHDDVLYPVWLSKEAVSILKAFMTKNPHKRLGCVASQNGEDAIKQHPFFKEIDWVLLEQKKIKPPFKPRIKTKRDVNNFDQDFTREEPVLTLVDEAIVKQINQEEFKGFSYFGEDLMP

PKC isoenzyme ζ = molecular target: T6, PKC isoenzyme ζ (Homo sapiens, UniProt Q05513); conditions: hDMEC, after stimulation with PMA; from fibrillar structures
T6 construct: endogenous in cells; host or cells: hDMEC (human dermal microvascular endothelial cells)
T6 sequence (Q05513 1-592): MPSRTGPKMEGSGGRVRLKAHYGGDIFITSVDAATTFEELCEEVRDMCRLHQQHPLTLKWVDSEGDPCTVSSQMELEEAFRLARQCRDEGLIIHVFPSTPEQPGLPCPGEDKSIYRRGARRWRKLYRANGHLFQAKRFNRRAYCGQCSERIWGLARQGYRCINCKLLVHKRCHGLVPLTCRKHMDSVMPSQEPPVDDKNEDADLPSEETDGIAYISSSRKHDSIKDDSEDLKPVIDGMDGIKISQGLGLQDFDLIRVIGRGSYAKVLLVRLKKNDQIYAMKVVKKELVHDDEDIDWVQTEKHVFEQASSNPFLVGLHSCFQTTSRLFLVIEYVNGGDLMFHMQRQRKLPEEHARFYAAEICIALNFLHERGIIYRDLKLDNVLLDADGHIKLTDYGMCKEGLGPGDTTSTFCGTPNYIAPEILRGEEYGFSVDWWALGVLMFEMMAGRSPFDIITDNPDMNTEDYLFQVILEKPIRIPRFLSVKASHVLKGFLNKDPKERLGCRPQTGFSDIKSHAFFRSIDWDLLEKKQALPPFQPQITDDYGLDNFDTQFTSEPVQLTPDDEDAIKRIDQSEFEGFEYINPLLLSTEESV

PKC isoenzyme η = molecular target: T7, PKC isoenzyme η (Homo sapiens, UniProt P24723); conditions: hDMEC, after stimulation with PMA; from nucleus
T7 construct: endogenous in cells; host or cells: hDMEC (human dermal microvascular endothelial cells)
T7 sequence (P24723 whole entry): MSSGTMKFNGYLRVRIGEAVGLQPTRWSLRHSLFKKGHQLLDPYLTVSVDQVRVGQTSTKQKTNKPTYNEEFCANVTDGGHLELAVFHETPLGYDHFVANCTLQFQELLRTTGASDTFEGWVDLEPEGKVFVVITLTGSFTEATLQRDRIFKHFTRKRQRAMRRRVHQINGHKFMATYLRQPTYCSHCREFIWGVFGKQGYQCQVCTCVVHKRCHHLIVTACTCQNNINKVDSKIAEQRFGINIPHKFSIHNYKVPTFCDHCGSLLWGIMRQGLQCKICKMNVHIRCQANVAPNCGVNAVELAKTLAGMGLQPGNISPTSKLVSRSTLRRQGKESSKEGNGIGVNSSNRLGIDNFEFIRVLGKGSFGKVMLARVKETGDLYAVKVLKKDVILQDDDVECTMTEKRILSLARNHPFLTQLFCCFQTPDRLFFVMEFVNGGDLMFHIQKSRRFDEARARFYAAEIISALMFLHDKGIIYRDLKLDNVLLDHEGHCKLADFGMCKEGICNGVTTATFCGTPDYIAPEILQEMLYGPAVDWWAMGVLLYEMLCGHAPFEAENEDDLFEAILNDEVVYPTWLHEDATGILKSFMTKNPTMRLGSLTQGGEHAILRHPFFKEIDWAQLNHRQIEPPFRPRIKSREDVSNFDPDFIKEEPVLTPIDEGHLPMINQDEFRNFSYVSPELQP

[1] = system: fusion of the C1 region with green fluorescent protein (GFP); conditions: from a diffuse cytoplasmic localization

Q: With `CCCCCCCCCCCCCC(=O)O[C@@H]1[C@@H](C)[C@@]2(O)[C@@H](C=C(CO)C[C@]3(O)C(=O)C(C)=C[C@@H]23)[C@@H]2C(C)(C)[C@]12OC(C)=O` [PMA, phorbol myristic acetate] as the molecule, how does the “Localization after stimulation (To)” value (PKC isoenzyme α) read?
A: perinuclear membrane

Q: What about the “Localization after stimulation (To)” value (PKC isoenzyme β) of the same molecule?
A: nucleus

Q: What about the “Localization after stimulation (To)” value (PKC isoenzyme βII) of the same molecule?
A: filamentous structures

Q: And the “Localization after stimulation (To)” value (PKC isoenzyme δ)?
A: cytoskeletal elements

Q: And the “Localization after stimulation (To)” value (PKC isoenzyme ε)?
A: perinucleus

Q: What about the “Localization after stimulation (To)” value (PKC isoenzyme ζ) of the same molecule?
A: no change

Q: And the “Localization after stimulation (To)” value (PKC isoenzyme η)?
A: no change

Q: And the “Localization of C1-GFP fusion protein in response to PMA” value [1]?
A: membrane bound
